# Test results: patent US20230077362A1 (CORTEVA AGRISCIENCE LLC, priority 2019, published 2023)
# Columns and labels:
# Type in all cases: in vivo
# [1] = tested on: Green Peach Aphid ("GPA") (Myzus persicae), wingless adult and nymph stages; test: Bioassay on green peach aphid (GPA), foliar spray on infested cabbage seedlings; conditions: for pest or weed control at 200 µg/mL: Myzus persicae, foliar, 72 h, read-out: GPA (Biological Results, rating)
# Description: Certain molecules disclosed in this document were tested against GPA using procedures described in the following example. In the reporting of the results, the “GPA Rating Table” was used (See Table Section).
# Cabbage seedlings grown in 3-inch pots, with 2-3 small (3-5 cm) true leaves, were used as test substrate. The seedlings were infested with 20-50 GPA (wingless adult and nymph stages) one day prior to chemical application. Four pots with individual seedlings were used for each treatment. Test compounds (2 mg) were dissolved in 2 mL of acetone/methanol (1:1) solvent, forming stock solutions of 1000 ppm test compound. […] A hand-held aspirator-type sprayer was used for spraying a solution to both sides of […] leaves until runoff. Reference plants (solvent check) were sprayed with the diluent only containing 20% by volume of acetone/methanol (1:1) solvent. Treated plants were held in a holding room for three days at approximately 25° C. and ambient relative humidity (RH) prior to grading. Evaluation was conducted by counting the number of live aphids per plant under a microscope.
# Corrected % Control=100*(X−Y)/X • where • X=No. of live aphids on solvent check plants and • Y=No. of live aphids on treated plants
# The results are indicated in the table entitled “Table ABC: Biological Results” (See Table Section).
# [2] = tested on: Beet Armyworm (Spodoptera exigua) ("BAW"), second instar larvae; test: Bioassay on beet armyworm (BAW), 128-well diet tray assay; conditions: Table ABC, species BAW; for BAW rating (% control or mortality class): 128-well diet tray assay, second instar larvae; for BAW rating: C = not tested, D = no activity noticed
# Summary of the method: (§1)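 Mortality (%) is scored well by well after five to seven days at 25° C. on a 14:10 light:dark regime. The value given is the mean of eight wells.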
# [3] = tested on: Cabbage Looper (Trichoplusia ni) ("CL"), second instar larvae; test: Bioassay on cabbage looper (CL), 128-well diet tray assay; conditions: Table ABC, species CL; for mortality at 50 µg/cm2: Trichoplusia ni, 128-well diet tray assay, second instar larvae, read-out: CL rating (% control or mortality class); for CL rating: C = not tested, D = no activity noticed
# Summary of the method: as §1
Molecule,BAW rating (% control or mortality class) [2],mortality at 50 µg/cm2 [3],further results
"CCCc1ccc(C)cc1N1C(=O)CS/C1=N\C(=O)Nc1ccc(-c2ncn(-c3ccc(OC(F)(F)F)cc3)n2)cc1F [Compound J41, (Z)-1-(2-Fluoro-4-(1-(4-(trifluoromethoxy)phenyl)-1H-1,2,4-triazol-3-yl)phenyl)-3-(3-(5-methyl-2-propylphenyl)-4-oxothiazolidin-2-ylidene)urea]",–,–,pest or weed control at 200 µg/mL [1]: 0 to 80%
"CC(C)c1ccc(C#N)cc1N1C(=O)CS/C1=N\C(=O)Nc1ccc(-c2ncn(-c3ccc(OC(F)(F)F)cc3)n2)cc1F [Compound J76, (Z)-1-(3-(5-Cyano-2-isopropylphenyl)-4-oxothiazolidin-2-ylidene)-3-(2-fluoro-4-(1-(4-(trifluoromethoxy)phenyl)-1H-1,2,4-triazol-3-yl)phenyl)urea]",–,–,pest or weed control at 200 µg/mL [1]: 0 to 80%
"CCOc1ccc(C(C)C)c(N2C(=O)CS/C2=N\C(=O)Nc2ccc(-c3ncn(-c4ccc(OC(F)(F)F)cc4)n3)cc2F)c1 [Compound J191, (Z)-1-(3-(5-Ethoxy-2-isopropylphenyl)-4-oxothiazolidin-2-ylidene)-3-(2-fluoro-4-(1-(4-(trifluoromethoxy)phenyl)-1H-1,2,4-triazol-3-yl)phenyl)urea]",–,–,pest or weed control at 200 µg/mL [1]: 0 to 80%
"Cc1ccc(-c2ccccc2)c(N2C(=O)CS/C2=N\C(=O)Nc2ccc(-c3ncn(-c4ccc(OC(F)(F)F)cc4)n3)cc2F)c1 [Compound J785, (Z)-1-(2-Fluoro-4-(1-(4-(trifluoromethoxy)phenyl)-1H-1,2,4-triazol-3-yl)phenyl)-3-(3-(4-methyl-[1,1′-biphenyl]-2-yl)-4-oxothiazolidin-2-ylidene)urea]",–,–,"GPA rating (% control or mortality class) ([1]; Table ABC, species GPA, foliar spray on infested cabbage seedlings): D (No activity noticed in this bioassay)"
"COCc1ccc(N(C)C)cc1N1C(=O)CS/C1=N\C(=O)Nc1ccc(-n2cnc(-c3ccc(OC(F)(F)F)cc3)c2)cc1Cl [Compound J789, (Z)-1-(2-Chloro-4-(4-(4-(trifluoromethoxy)phenyl)-1H-imidazol-1-yl)phenyl)-3-(3-(5-(dimethylamino)-2-(methoxymethyl)phenyl)-4-oxothiazolidin-2-ylidene)urea]",A (50-100),50 to 100%,–
"Cc1ccc(OCCC(F)(F)F)c(N2C(=O)CS/C2=N\C(=O)Nc2ccc(-n3cnc(-c4ccc(OC(F)(F)F)cc4)c3)cc2Cl)c1 [Compound J790, (Z)-1-(2-Chloro-4-(4-(4-(trifluoromethoxy)phenyl)-1H-imidazol-1-yl)phenyl)-3-(3-(5-methyl-2-(3,3,3-trifluoropropoxy)phenyl)-4-oxothiazolidin-2-ylidene)urea]",A (50-100),50 to 100%,–
"COC(c1ccc(C)cc1N1C(=O)CS/C1=N\C(=O)Nc1ccc(-n2cnc(-c3ccc(OC(F)(F)F)cc3)c2)cc1Cl)C(F)(F)F (stereo not drawn) [Compound J791, (Z)-1-(2-Chloro-4-(4-(4-(trifluoromethoxy)phenyl)-1H-imidazol-1-yl)phenyl)-3-(3-(5-methyl-2-(2,2,2-trifluoro-1-methoxyethyl)phenyl)-4-oxothiazolidin-2-ylidene)urea]",A (50-100),50 to 100%,–
"Cc1ccc(C(C)C)c(N2C(=O)CS/C2=N\C(=O)Nc2ccc(-n3cnc(-c4ccc(OC(F)(F)F)cc4)c3)cc2Cl)c1 [Compound J792, (Z)-1-(2-Chloro-4-(4-(4-(trifluoromethoxy)phenyl)-1H-imidazol-1-yl)phenyl)-3-(3-(2-isopropyl-5-methylphenyl)-4-oxothiazolidin-2-ylidene)urea]",A (50-100),50 to 100%,–
"Cc1ccc(COCC(F)(F)F)c(N2C(=O)CS/C2=N\C(=O)Nc2ccc(-c3ncn(-c4ccc(C(F)(F)C(F)(F)F)cc4)n3)cc2F)c1 [Compound J793, (Z)-1-(2-Fluoro-4-(1-(4-(perfluoroethyl)phenyl)-1H-1,2,4-triazol-3-yl)phenyl)-3-(3-(5-methyl-2-((2,2,2-trifluoroethoxy)methyl)phenyl)-4-oxothiazolidin-2-ylidene)urea]",A (50-100),50 to 100%,–
"Cc1ccc(COCC(F)(F)F)c(N2C(=O)CS/C2=N\C(=O)Nc2ccc(-c3ncn(-c4ccc(C(F)(F)C(F)(F)F)cc4)n3)cc2C)c1 [Compound J794, (Z)-1-(3-(5-Methyl-2-((2,2,2-trifluoroethoxy)methyl)phenyl)-4-oxothiazolidin-2-ylidene)-3-(2-methyl-4-(1-(4-(perfluoroethyl)phenyl)-1H-1,2,4-triazol-3-yl)phenyl)urea]",A (50-100),50 to 100%,–
"CCOCc1ccc(C)cc1N1C(=O)CS/C1=N\C(=O)Nc1ccc(-c2ncn(-c3ccc(C(F)(F)C(F)(F)F)cc3)n2)cc1F [Compound J795, (Z)-1-(3-(2-(Ethoxymethyl)-5-methylphenyl)-4-oxothiazolidin-2-ylidene)-3-(2-fluoro-4-(1-(4-(perfluoroethyl)phenyl)-1H-1,2,4-triazol-3-yl)phenyl)urea]",A (50-100),50 to 100%,–
"CCOCc1ccc(C)cc1N1C(=O)CS/C1=N\C(=O)Nc1ccc(-c2ncn(-c3ccc(C(F)(F)C(F)(F)F)cc3)n2)cc1C [Compound J796, (Z)-1-(3-(2-(Ethoxymethyl)-5-methylphenyl)-4-oxothiazolidin-2-ylidene)-3-(2-methyl-4-(1-(4-(perfluoroethyl)phenyl)-1H-1,2,4-triazol-3-yl)phenyl)urea]",A (50-100),50 to 100%,–
"Cc1cc(C)c(C)c(N2C(=O)CS/C2=N\C(=O)Nc2ccc(-c3ncn(-c4ccc(OC(F)(F)F)cc4)n3)cc2F)c1 [Compound J797, (Z)-1-(2-Fluoro-4-(1-(4-(trifluoromethoxy)phenyl)-1H-1,2,4-triazol-3-yl)phenyl)-3-(4-oxo-3-(2,3,5-trimethylphenyl)thiazolidin-2-ylidene)urea]",A (50-100),50 to 100%,–
"COc1c(C)cccc1N1C(=O)CS/C1=N\C(=O)Nc1ccc(-c2ncn(-c3ccc(OC(F)(F)F)cc3)n2)cc1F [Compound J798, (Z)-1-(2-Fluoro-4-(1-(4-(trifluoromethoxy)phenyl)-1H-1,2,4-triazol-3-yl)phenyl)-3-(3-(2-methoxy-3-methylphenyl)-4-oxothiazolidin-2-ylidene)urea]",A (50-100),50 to 100%,–
"Cc1ccc(C(F)(F)F)cc1N1C(=O)CS/C1=N\C(=O)Nc1ccc(-c2ncn(-c3ccc(OC(F)(F)F)cc3)n2)cc1F [Compound J799, (Z)-1-(2-Fluoro-4-(1-(4-(trifluoromethoxy)phenyl)-1H-1,2,4-triazol-3-yl)phenyl)-3-(3-(2-methyl-5-(trifluoromethyl)phenyl)-4-oxothiazolidin-2-ylidene)urea]",A (50-100),50 to 100%,–
"Cc1ccc(COCCF)c(N2C(=O)CS/C2=N\C(=O)Nc2ccc(-c3ncn(-c4ccc(OC(F)(F)C(F)(F)F)cc4)n3)cc2C)c1 [Compound J801, (Z)-1-(3-(2-((2-Fluoroethoxy)methyl)-5-methylphenyl)-4-oxothiazolidin-2-ylidene)-3-(2-methyl-4-(1-(4-(perfluoroethoxy)phenyl)-1H-1,2,4-triazol-3-yl)phenyl)urea]",A (50-100),50 to 100%,–
"Cc1ccc(COCC(F)(F)F)c(N2C(=O)CS/C2=N\C(=O)Nc2ccc(-c3n[nH]c(-c4ccccc4)n3)cc2)c1 [Compound J802, (Z)-1-(3-(5-Methyl-2-((2,2,2-trifluoroethoxy)methyl)phenyl)-4-oxothiazolidin-2-ylidene)-3-(4-(5-phenyl-1H-1,2,4-triazol-3-yl)phenyl)urea]",A (50-100),50 to 100%,–
"(Z)-1-(2-Fluoro-4-(1-(4-(trifluoromethoxy)phenyl)-1H-1,2,4-triazol-3-yl)phenyl)-3-(3-(5-methyl-2-((thiophen-3-ylmethoxy)methyl)phenyl)-4-oxothiazolidin-2-ylidene)urea [Compound J623]",–,–,BAW rating [2]: A (50-100); CL rating [3]: A (50-100)
"(Z)-1-(3-(5-(Dimethylamino)-2-isopropylphenyl)-4-oxothiazolidin-2-ylidene)-3-(2-fluoro-4-(1-(6-(trifluoromethyl)pyridazin-3-yl))-1H-1,2,4-triazol-3-yl)phenyl)urea [Compound J393]",–,–,BAW rating [2]: A (50-100); CL rating [3]: A (50-100)
"(Z)-1-(3-(5-ethoxy-2-((2,2,2-trifluoroethoxy)methyl)phenyl)-4-oxothiazolidin-2-ylidene)-3-(2-methyl-4-(1-(4-(trifluoromethoxy)phenyl))-1H-1,2,4-triazol-3-yl)phenyl)urea [Compound J575]",–,–,BAW rating [2]: A (50-100); CL rating [3]: A (50-100)
